Test results reported in patent US8003692B2 (priority 2007, dated 2011).
Values joined by “and” are separate entries in the source; they are usually repeats but may differ in a detail not shown here. Equal values may be shown once. “Also recorded” adds a separate entry of the source. Read-outs that look alike come from different tables or passages of the source.

Legend:
[1] = biological target: anthrax edema factor (EF) (Bacillus anthracis, UniProt P40136); experiment: cell-based
cholera toxin = type: cell-based, Vibrio cholerae
Cholera toxin (CT) = settings: mouse, in vivo
[2] = tested on: Enterotoxigenic E. coli (ETEC); settings: mouse, in vivo
[3] = tested on: bacterial adhesion to HeLa cells; type: cell-based
[4] = tested on: ETEC H10507 or other enteric bacteria; type: cell-based, E. coli and Salmonella
physchem = settings: organic solvent or mixture
[5] = tested on: bacterial adhesion to Caco-2 cells; type: cell-based

anthrax edema factor (EF), sequence (P40136 whole entry, looked up): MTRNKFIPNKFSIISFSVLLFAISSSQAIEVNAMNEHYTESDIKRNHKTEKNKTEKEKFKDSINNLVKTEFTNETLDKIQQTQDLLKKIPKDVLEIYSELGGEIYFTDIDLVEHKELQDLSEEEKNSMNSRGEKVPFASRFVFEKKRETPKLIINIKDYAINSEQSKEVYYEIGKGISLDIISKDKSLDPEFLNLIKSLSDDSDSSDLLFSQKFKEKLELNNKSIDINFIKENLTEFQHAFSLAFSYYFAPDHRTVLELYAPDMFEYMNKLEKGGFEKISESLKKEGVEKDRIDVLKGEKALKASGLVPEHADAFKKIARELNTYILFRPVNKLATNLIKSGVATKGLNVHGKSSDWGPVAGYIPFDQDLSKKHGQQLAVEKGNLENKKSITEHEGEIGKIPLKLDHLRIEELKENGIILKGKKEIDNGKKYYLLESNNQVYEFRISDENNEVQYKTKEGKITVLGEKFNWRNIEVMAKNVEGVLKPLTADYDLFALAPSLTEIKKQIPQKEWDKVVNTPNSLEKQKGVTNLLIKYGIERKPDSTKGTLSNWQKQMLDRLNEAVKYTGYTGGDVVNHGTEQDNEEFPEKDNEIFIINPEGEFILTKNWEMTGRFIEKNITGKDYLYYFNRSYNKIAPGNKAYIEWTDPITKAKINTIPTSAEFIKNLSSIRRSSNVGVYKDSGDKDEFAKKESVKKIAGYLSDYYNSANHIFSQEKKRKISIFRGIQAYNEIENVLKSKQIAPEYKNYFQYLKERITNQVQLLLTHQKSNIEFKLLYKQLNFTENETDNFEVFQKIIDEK

## COc1cccc(C2=C(C)C(=O)CC2)n1 [FI-21, 3-(6-Methoxy-pyridin-2-yl)-2-methyl-cyclopent-2-enone]
[1]
  inhibition of EF / Edema Toxin induced cAMP production (in words): good activity
[1]; read-out: IC-50
  IC50: 30 µM

## COc1ccc(C2=C(C)C(=O)CC2)cn1 [FI-14, 3-(6-Methoxy-pyridin-3-yl)-2-methyl-cyclopent-2-enone]
[1]
  inhibition of EF / Edema Toxin induced cAMP production (in words): good activity
[1]; read-out: IC-50
  IC50: 24 µM

## COc1ccc(C(=O)O)cc1NC(=O)c1cccc2c1C(=O)c1ccccc1-2 [FIV-1, 4-Methoxy-3-[(9-oxo-9H-fluorene-1-carbonyl)-amino]-benzoic acid]
[1]; IC50
  IC50: 5.8 µM

## COc1cccc(C2=C(C)C(=O)CC2)n1 [FI-3, 3-(6-Methoxy-pyridin-2-yl)-2-methyl-cyclopent-2-enone]
Cholera toxin
  inhibition of cholera toxin induced cAMP (in words): most consistently been active; also recorded: inhibits cholera toxin induced cAMP, but not quite as well as PGE2-imidazole
Cholera toxin (CT); Swiss-Webster
  toxic effects in the animals (in words): several animals treated with the CT+FI-3 mixture died
Cholera toxin (CT)
  Reduction of fluid accumulation: Yes
  toxic effects in the animals (in words): displayed edema, blood and fluid accumulation
[1]
  inhibition of EF / Edema Toxin induced cAMP production (in words): most consistently been active; also recorded: dose-dependent activity and reduced extracellular cAMP accumulation
[1]; Selected assay results (IC50)
  IC50: 38.8 µM and 64.1 µM and 11.1 µM and 29.4 µM
[1]; read-out: IC50
  IC50: 30 µM
[1]; read-out: Selected assay results (IC50)
  IC50: 29.9 µM

## COc1cccc([C@H]2Nc3ccc(C(=O)O)cc3[C@@H]3C=CC[C@H]23)c1 (stereo in doubt) [FII-1, 4-(3-methoxy-phenyl)-3a,4,5,9b-tetrahydro-3H-cyclopenta[c]quinoline-8-carboxylic acid]
RAW 264.7 cells
  cytotoxicity in LDH assay (in words): no obvious cytotoxic effect
Cholera toxin (CT)
  Reduction of fluid accumulation: No*
  Toxicity: No
  accumulation of intestinal fluid after experimental infection with CT (in words): did not cause a significant reduction in fluid accumulation
  toxic effects in the animals (in words): Toxic effects were observed
[1]
  inhibition of EF / Edema Toxin induced cAMP production (in words): effective; also recorded: more active than PGE2-imidazole
[1]; IC50 values
  IC50: 1.8 to 7 µM

## COc1cccc(C2=CC(=O)CCC2)n1 [FI-9, 3-(6-Methoxy-pyridin-2-yl)-cyclohex-2-enone]
[1]
  inhibition of EF / Edema Toxin induced cAMP production (in words): not active

## O=C(Nc1cccc(OC(F)(F)F)c1)c1cccc2c1C(=O)c1ccccc1-2 [FIV-67, 9-Oxo-9H-fluorene-1-carboxylic acid (3-trifluoromethoxy-phenyl)-amide]
[1]; IC50
  IC50: 6.9 µM

## O=C(O)c1cccc(NC(=O)c2cccc3c2C(=O)c2ccccc2-3)c1O [FIV-39, 2-Hydroxy-3-[(9-oxo-9H-fluorene-1-carbonyl)-amino]-benzoic acid]
[1]; IC50
  IC50: 5.6 µM

## Cc1c(NC(=O)c2cccc3c2C(=O)c2ccccc2-3)cccc1C(=O)O [FIV-55, 2-Methyl-3-[(9-oxo-9H-fluorene-1-carbonyl)-amino]-benzoic acid]
[1]; IC50
  IC50: 11.4 µM

## O=C(O)c1cc(NC(=O)c2cccc3c2C(=O)c2ccccc2-3)ccc1O [FIV-35, 2-Hydroxy-5-[(9-oxo-9H-fluorene-1-carbonyl)-amino]-benzoic acid]
[1]; IC50
  IC50: 6.2 µM

## COc1cccc(C2=CC(=O)CC(c3ccc(F)cc3)C2)c1 (centres unmarked) [FI-2, 5-(4-Fluoro-phenyl)-3-(3-methoxy-phenyl)-cyclohex-2-enone]
RAW 264.7 cells
  cytotoxicity in LDH assay (in words): minimal cytotoxic effect
Cholera toxin (CT); Swiss-Webster
  toxic effects in the animals (in words): number of animals surviving the full 6 hour of the incubation was reduced by half
Cholera toxin (CT)
  Reduction of fluid accumulation: Yes
  Toxicity: No
  toxic effects in the animals (in words): highly toxic
[1]
  inhibition of EF / Edema Toxin induced cAMP production (in words): cAMP inhibitory activity
[1]; IC50
  IC50: 28 µM
[1]; Selected assay results (IC50)
  IC50: 21.4 µM and 27.3 µM

## CN(C)c1cccc(NC(=O)c2cccc3c2C(=O)c2ccccc2-3)c1 [FIV-65, 9-Oxo-9H-fluorene-1-carboxylic acid (3-dimethylamino-phenyl)-amide]
[1]; IC50
  IC50: 1.5 µM

## COC(=O)c1cccc(NC(=O)c2cccc3c2C(=O)c2ccccc2-3)c1C [FIV-54, 2-Methyl-3-[(9-oxo-9H-fluorene-1-carbonyl)-amino]-benzoic acid methyl ester]
[1]; IC50
  IC50: 12.9 µM

## N=C(N)c1cccc(NC(=O)c2cccc3c2C(=O)c2ccccc2-3)c1 [FIV-68, 9-Oxo-9H-fluorene-1-carboxylic acid (3-carbamimidoyl-phenyl)-amide]
[1]; IC50
  IC50: 2.71 µM

## O=C(Nc1ccccc1)c1cccc2c1C(=O)c1ccccc1-2 [FIV-61, 9-Oxo-9H-fluorene-1-carboxylic acid phenylamide]
[1]; IC50
  IC50: 28.6 µM

## O=C(O)c1cccc(NC(=O)c2cccc3c2C(=O)c2ccccc2-3)c1 [FIV-50, 3-[(9-Oxo-9H-fluorene-1-carbonyl)-amino]-benzoic acid]
[2]
  differences in the number of bacteria recovered: 3 logs
[3]
  effect on bacterial adherence (in words): Reduction in adherence was only observed in ETEC
[4]
  effect on bacterial growth rate (in words): no effect on growth
physchem
  solubility: ≥ 100 mM
[5]
  effect on bacterial adherence (in words): no reduction in adherence
RAW 264.7 cells
  cytotoxicity in LDH assay (in words): no obvious cytotoxic effect
Cholera toxin (CT)
  Reduction of fluid accumulation: Yes
  Toxicity: No
[1]
  inhibition of EF / Edema Toxin induced cAMP production (in words): extremely effective; also recorded: more active than PGE2-imidazole
[1]; IC50
  IC50: 1.7 to 9 µM
[1]; IC50 values
  IC50: 1.7 to 5 µM
[1]; IC50 values, mean
  IC50: 4.74 µM
[1]; IC50 values, range
  IC50: 0.291 to 12.3 µM

## O=C(Nc1ccc(F)c(Cl)c1)c1cccc2c1C(=O)c1ccccc1-2 [FIV-60, 9-Oxo-9H-fluorene-1-carboxylic acid (3-chloro-4-fluoro-phenyl)-amide]
[1]; IC50
  IC50: 3.8 µM

## O=C(O)c1ccc(/N=C/c2c3ccccc3cc3ccccc23)cc1O [FIII-1, 4-[(Anthracen-9-ylmethylene)-amino]-2-hydroxy-benzoic acid]
[1]
  inhibition of EF / Edema Toxin induced cAMP production (in words): more active than PGE2-imidazole
[1]; read-out: IC50 values
  IC50: 9 µM

## O=C1C=C(c2ccc3[nH]ccc3c2)CCC1 [FI-17, 3-(1H-Indol-5-yl)-cyclohex-2-enone]
[1]
  inhibition of EF / Edema Toxin induced cAMP production (in words): comparable activity to the best compounds
[1]; read-out: IC-50
  IC50: 56 µM

## COc1cccc(C2=CC(=O)CCC2)c1 [FI-15, 3-(3-Methoxy-phenyl)-cyclohex-2-enone]
[1]; read-out: IC-50
  IC50: 30 µM

## COc1cccc(C2=CC(=O)CC(c3ccco3)C2)c1 (centres unmarked) [FI-1, 5-Furan-2-yl-3-(3-methoxy-phenyl)-cyclohex-2-enone]
Cholera toxin
  inhibition of cholera toxin induced cAMP (in words): did not inhibit
Cholera toxin (CT); Swiss-Webster
  toxic effects in the animals (in words): toxic effects similar to FI-2
Cholera toxin (CT)
  Reduction of fluid accumulation: No
  Toxicity: Yes
  accumulation of intestinal fluid after experimental infection with CT (in words): did not cause a reduction in fluid accumulation
[1]
  inhibition of EF / Edema Toxin induced cAMP production (in words): did not inhibit
[1]; IC50
  IC50: 20 µM
[1]; Selected assay results (IC50)
  IC50: 20.4 µM and > 100 µM

## O=C1C=C(c2ccc3c(c2)OCO3)CCC1 [FI-18, 3-Benzo[1,3]dioxol-5-yl-cyclohex-2-enone]
[1]; read-out: IC-50
  IC50: 53 µM

## COc1ccccc1C1=CC(=O)CCC1 [FI-27, 3-(2-Methoxy-phenyl)-cyclohex-2-enone]
[1]; read-out: IC-50
  IC50: 35 µM

## N#Cc1ccc(NC(=O)c2cccc3c2C(=O)c2ccccc2-3)c(Cl)c1 [FIV-70, 9-Oxo-9H-fluorene-1-carboxylic acid (2-chloro-4-cyano-phenyl)-amide]
[1]; IC50
  IC50: 50 µM

## COC(=O)c1ccc(OC)c(NC(=O)c2cccc3c2C(=O)c2ccccc2-3)c1 [FIV-58, 4-Methoxy-3-[(9-oxo-9H-fluorene-1-carbonyl)-amino]-benzoic acid methyl ester]
[1]; IC50
  IC50: 7.2 µM
